# Experimental data published in ChEMBL document CHEMBL4825736, “Design, synthesis and biological evaluation of naringenin carbamate derivatives as potential multifunctional agents for the treatment of Alzheimer's disease” (Bioorg Med Chem Lett, 2021).
# Active and inactive are the calls of the source. No cut-off for these calls is given here.
# What was measured:
# [1] = Metal chelating activity assessed as compound-Cu2+ complex formation by UV spectrophotometric analysis
# [2] = Metal chelating activity assessed as compound-Fe3+ complex formation by measuring decrease in fluorescence intensity by fluorescence emission spectral analysis
# Acetylcholinesterase = Acetylcholinesterase (Electrophorus electricus, UniProt O42275); assay: Inhibition of electric eel AChE by Ellman's method
# [3] = Metal chelating activity assessed as Cu2+-complex formation by measuring inhibition of Cu2+ induced amyloid beta (1 to 42) aggregation at 25 uM by Thioflavin T based fluorometric assay
# [4] = Metal chelating activity assessed as compound-Zn2+ complex formation by UV spectrophotometric analysis
# [5] = molecular target: Amyloid-beta precursor protein (Homo sapiens) (UniProt P05067); assay: Inhibition of amyloid beta (1 to 42) (unknown origin) self aggregation at 25 uM by Thioflavin T based fluorometric assay
# [6] = Metal chelating activity assessed as compound-Fe3+ complex formation by UV spectrophotometric analysis
# Cholinesterase [7] = molecular target: T1, Cholinesterase (Equus caballus, UniProt P81908)
# Description: Inhibition of equine serum BuChE by Ellman's method
# [8] = Metal chelating activity assessed as compound-Cu2+ complex formation by fluorescence emission spectral analysis
# [9] = Metal chelating activity assessed as compound-Zn2+ complex formation by measuring new peak formation by fluorescence emission spectral analysis
# [10] = Antioxidant activity assessed as superoxide anion radical scavenging activity by measuring reduction in anode current by cyclic voltammetry; type: functional
# [11] = Antioxidant activity assessed as superoxide anion radical scavenging activity by measuring reduction in cathode current by cyclic voltammetry; type: functional
# [12] = molecular target: Cholinesterase (Equus caballus) (UniProt P81908); assay: Mixed type inhibition of equine serum BuChE assessed as decrease in Vmax with increase in Km by Lineweaver-Burk plot analysis; type: cell-free
# [13] = molecular target: Cholinesterase (Equus caballus) (UniProt P81908); assay: (§1) Mixed type inhibition of equine serum BuChE by double reciprocal analysis; type: cell-free
# Cholinesterase [14] = molecular target: T1, Cholinesterase; assay: as §1; type: cell-free
# T1 sequence (P81908 whole entry): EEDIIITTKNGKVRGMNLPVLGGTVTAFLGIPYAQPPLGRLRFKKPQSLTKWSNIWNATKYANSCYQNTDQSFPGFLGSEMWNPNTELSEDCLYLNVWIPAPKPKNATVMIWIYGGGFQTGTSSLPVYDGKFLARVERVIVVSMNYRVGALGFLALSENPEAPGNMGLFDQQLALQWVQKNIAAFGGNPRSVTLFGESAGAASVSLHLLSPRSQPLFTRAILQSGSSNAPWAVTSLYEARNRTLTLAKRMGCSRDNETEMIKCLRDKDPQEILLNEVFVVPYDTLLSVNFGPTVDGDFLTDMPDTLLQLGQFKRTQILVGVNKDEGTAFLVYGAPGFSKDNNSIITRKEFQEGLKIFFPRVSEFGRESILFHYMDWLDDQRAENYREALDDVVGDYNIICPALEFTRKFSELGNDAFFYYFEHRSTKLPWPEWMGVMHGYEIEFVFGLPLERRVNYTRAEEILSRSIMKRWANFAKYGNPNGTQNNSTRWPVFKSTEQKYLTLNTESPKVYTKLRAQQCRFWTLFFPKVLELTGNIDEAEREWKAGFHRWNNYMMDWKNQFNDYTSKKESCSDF
# Sequence of Amyloid-beta precursor protein (Homo sapiens) (P05067 whole entry): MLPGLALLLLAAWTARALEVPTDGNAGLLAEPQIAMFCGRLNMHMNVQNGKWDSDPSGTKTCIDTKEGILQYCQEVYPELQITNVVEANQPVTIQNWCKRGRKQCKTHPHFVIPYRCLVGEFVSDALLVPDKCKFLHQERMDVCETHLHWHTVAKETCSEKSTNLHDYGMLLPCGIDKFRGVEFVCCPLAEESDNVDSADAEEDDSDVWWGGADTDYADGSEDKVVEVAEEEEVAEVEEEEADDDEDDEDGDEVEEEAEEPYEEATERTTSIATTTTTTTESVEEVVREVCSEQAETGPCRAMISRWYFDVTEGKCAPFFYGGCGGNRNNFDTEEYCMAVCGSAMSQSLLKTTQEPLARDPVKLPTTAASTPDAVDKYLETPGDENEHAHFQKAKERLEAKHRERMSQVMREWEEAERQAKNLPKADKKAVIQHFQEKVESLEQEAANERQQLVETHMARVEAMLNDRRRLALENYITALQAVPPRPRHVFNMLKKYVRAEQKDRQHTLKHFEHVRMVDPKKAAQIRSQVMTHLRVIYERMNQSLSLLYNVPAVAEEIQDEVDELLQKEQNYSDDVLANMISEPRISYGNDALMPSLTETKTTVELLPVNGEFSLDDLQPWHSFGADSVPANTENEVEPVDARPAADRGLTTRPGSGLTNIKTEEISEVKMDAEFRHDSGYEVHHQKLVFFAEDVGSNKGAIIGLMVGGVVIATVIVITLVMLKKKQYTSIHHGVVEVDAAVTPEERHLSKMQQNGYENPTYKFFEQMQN
# Sequence of Acetylcholinesterase (O42275 whole entry): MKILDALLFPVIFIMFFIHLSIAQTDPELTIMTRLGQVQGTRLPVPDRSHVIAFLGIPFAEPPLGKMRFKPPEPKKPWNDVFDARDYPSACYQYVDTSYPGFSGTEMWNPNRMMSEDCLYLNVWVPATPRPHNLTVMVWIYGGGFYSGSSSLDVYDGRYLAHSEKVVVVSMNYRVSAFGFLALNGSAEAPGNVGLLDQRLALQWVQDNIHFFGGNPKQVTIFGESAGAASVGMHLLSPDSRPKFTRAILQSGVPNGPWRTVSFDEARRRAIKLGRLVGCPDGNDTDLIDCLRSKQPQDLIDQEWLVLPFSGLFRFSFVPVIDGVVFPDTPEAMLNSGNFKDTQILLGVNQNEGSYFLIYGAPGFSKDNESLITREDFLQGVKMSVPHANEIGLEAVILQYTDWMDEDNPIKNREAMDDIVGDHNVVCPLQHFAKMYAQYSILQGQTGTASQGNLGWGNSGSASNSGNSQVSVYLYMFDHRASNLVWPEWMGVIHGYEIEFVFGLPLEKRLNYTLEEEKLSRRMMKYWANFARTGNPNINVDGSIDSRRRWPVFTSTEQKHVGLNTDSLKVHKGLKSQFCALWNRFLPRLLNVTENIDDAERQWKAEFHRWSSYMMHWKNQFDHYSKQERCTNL
# Sequence of Cholinesterase (Equus caballus) (P81908 whole entry): as the sequence (P81908 whole entry) above
SMILES,Activity [1],Activity [2],IC50 (Acetylcholinesterase) [µM],inhibition [3] [%],Activity [4],inhibition [5] [%],Activity [6],IC50 (Cholinesterase [7]) [µM],Activity [8],Activity [9],Activity [10],Activity [11],inhibition [12],Ks [13] [µM],Ki (Cholinesterase [14]) [µM]
CN(C)C(=O)Oc1ccc(C2CC(=O)c3c(O)cc(OC(=O)N(C)C)cc3O2)cc1 (centres undefined),Active,Active,23.9,53.5,Active,62.4,Active,12.2,inactive,Active,–,–,–,–,–
CCN(C)C(=O)Oc1cc(O)c2c(c1)OC(c1ccc(O)cc1)CC2=O (centres undefined),Active,Active,28.3,65.5,Active,66.5,–,3.42,inactive,Active,–,–,–,–,–
O=C1C[C@@H](c2ccc(O)cc2)Oc2cc(O)cc(O)c21 [NARINGENIN],–,–,> 100,69.2,–,44.9,–,> 100,–,–,Active,Active,–,–,–
O=C1CC(c2ccc(O)cc2)Oc2cc(OC(=O)N3CCOCC3)cc(O)c21 (centres undefined),Active,Active,12.9,60.9,–,62.3,–,13.7,inactive,Active,–,–,–,–,–
O=C1CC(c2ccc(O)cc2)Oc2cc(OC(=O)N3CCCCC3)cc(O)c21 (centres undefined),Active,Active,62.5,61.1,Active,36.1,Active,0.094,inactive,Active,Active,Active,Active,0.469,1.6
COc1cc(/C=C/C(=O)CC(=O)/C=C/c2ccc(O)c(OC)c2)ccc1O,–,–,–,73.3,–,–,–,–,–,–,–,–,–,–,–
